Patent publication US5543396A, “Proline phosphonate derivatives” (priority 1994, dated 1996)

What was measured:
[1] = Half-lives for spontaneous hydrolysis of inhibitors in buffer; assay type: physicochemical; settings: 0.05 M Tris, pH 7.8 buffer, 8% Me2SO, 23° C.
Description: Determination of Half-Lives for Spontaneous Hydrolysis of Inhibitors in Buffer. […] The spontaneous hydrolysis was monitored by following the increase in absorbance at 270 nm for phosphonates with phenoxy groups, at 280 nm for compounds with 4-.chlorophenoxy groups or at 277 nm for the 4-fluorophenoxy derivative. Half-lives were obtained from first-order plots of ln (Af -At) vs time, where At is the absorbance of the mixture at time t, and Af is the final absorbance of phosphonate monophenyl ester and phenol (or corresponding compounds). This was obtained from the absorbance of the solution which had remained constant for a few hours. All the plots gave correlation coefficients of 0.95 or greater.

DPP-IV = DPP-IV (Homo sapiens, UniProt P27487); experiment: Stability of inhibited DPP-IV; settings: for recovery of enzyme activity of inhibited DPP-IV: after 24 h, excess inhibitor removed by centrifugation; for DPP-IV enzyme activity found after incubation with inhibitor: inhibitor 0.042-0.42 mM, pH 7.8 buffer, incubation for 1 h
Experimental: Excess inhibitors in the inhibited enzyme solution were removed by centrifugation of the diluted enzyme solution twice using Amicon microconcentrators.
Stability of Inhibited DPP-IV. […] Excess inhibitors was removed from diluted solutions of inactivated enzyme by centrifugation three times at 0° C. for 1 h each in Amicon Centricon-10 microconcentrators following addition of buffer. The enzyme activity of solution was assayed at various intervals as described above.

Human Placenta DPP-IV = target: T1, Human Placenta DPP-IV (Homo sapiens, UniProt P27487); experiment: Inhibition of DPP-IV by peptidyl phosphonates, incubation method; assay type: biochemical; settings: for % Inhibition 2 min / % Inhibition 30 min: [I] 0.12 mM, 0.05 M Tris pH 7.8, 5% Me2SO, substrate TFA.Ala-Pro-AFC 0.190 mM; for % Inhibition 2 min / % Inhibition 30 min / kobs /[I] for DPP-IV: 23° C.; for kobs /[I] for DPP-IV: 0.05 M Tris pH 7.8, 8% Me2SO, substrate TFA.Ala-Pro-AFC 0.2 mM; for inhibition of DPP-IV, in words: inhibitor 0.12 mM
T1 construct: from tissue; host or cells: human placenta
Experimental: Standard Assay of DPP-IV. DPP-IV was assayed in 450 μL of 50 mM Tris, pH 7.8, 0.2 mM Ala-Pro-AFC (freshly diluted from a 20 mM stock in DMF), and 5 μL of enzyme solution at 30° C. or in 2 mL of buffer, 0.2 mM Ala-Pro-AFC (diluted from 8 mM stock in Me2 SO) at 23° C. Fluorescence was measured at 400 nm excitation and 505 nm emission. One unit of DPP-IV is defined as the amount of enzyme that will hydrolyze 1.0 μmole of Ala-Pro-AFC per min at 25° C. and pH 7.8.
Enzyme Irreversible Inactivation--Incubation Method. An aliquot of inhibitor (25 or 50 μL) in Me2 SO was added to 0.28-0.55 mL of a buffered enzyme solution (0.83 munits for DPP-IV; 2.1 units for acetylcholinesterase; 0.07-4.5 μM for other enzymes) to initiate the inactivation reaction. Aliquots (20-250 μL) were withdrawn at various intervals and the residual enzymatic activity was measured at 23° C. as described below. The buffers were: 0.05M Tris, pH 7.8 for DPP-IV; 0.1M Hepes, 0.01M CaCl2, pH 7.5 for bovine trypsin; 0.1M Hepes, 0.5M NaCl, pH 7.5 for bovine chymotrypsin, PPE, and HLE; 0.1M phosphate, pH 7.5 for acetylcholinesterase; 50 mM Tris-HCl, 2 mM EDTA, 5 mM cysteine, (freshly prepared) pH 7.5 buffer for papain and 100 mM KH2 PO4, 1.33 mM EDTA, 2.7 mM cysteine (freshly prepared), pH 6.0 buffer for cathepsin B. […] The inhibitor concentrations are shown in the appropriate table. Stock solutions of substrates were prepared in Me2 SO and stored at -20° C. DPP-IV was assayed with TFA.Ala-Pro-AFC. Papain and cathepsin B were assayed with Bz-Arg-AMC and Z-Arg-Arg-AMC, respectively. The release of AMC were followed fluorometrically (excitation at 380 nm and emmision at 460 nm for AMC). Acetylcholinesterase was assayed with acetylthiocholine iodide in the presence of DTNB at 412 nm. Trypsin was assayed with Z-Phe-Gly-Arg-.rho.NA.HCl (0.09 mM), chymotrypsin was assayed with Suc-Phe-Thr-Phe-.rho.NA (0.48 mM), PPE and HLE were assayed with Suc-Ala-Ala-Ala-.rho.NA (0.44 mM) and MeO-Suc-Ala-Ala-Pro-Val-.rho.NA (0.24 mM), respectively. Peptide .rho.-nitroanilide hydrolysis was measured at 410 nm (ε410 =8,800 M ^1 cm^-1). Pseudo first-order inactivation rate constants (kobs) were obtained from plots of In vt /vo vs time, and the correlation coefficients were greater than 0.98.

Chymotrypsin = Chymotrypsin (Bos taurus, UniProt P00766); experiment: Inhibition of chymotrypsin, incubation method; assay type: biochemical, bovine
Experimental: Inactivation rates of serine proteases by aryl diesters of peptidyl derivatives of α-aminoalkylphosphonates were measured by the incubation method. An aliquot of inhibitor (25 or 50 μl) in Me2 SO was added to a buffered enzyme solution (0.01-2.3 μM) to initiate the inactivation. Aliquots (50 μl) were withdrawn at various intervals and the residual enzymatic activity was measured. Me2 SO concentration in the reaction mixture was 8-12% (v/v). A 0.1M HEPES, 0.01M CaCl2, pH 7.5 buffer was utilized for trypsin and trypsin-like enzymes. A 0.1M HEPES, 0.5M NaCl, pH 7.5, was utilized for the other serine proteases. Peptide thioesters or peptide nitroanilides with the appropriate sequences were used as substrates for various serine proteases. All peptide thioesters hydrolysis rates were measured with the assay mixture containing 4,4'-dithiodipyridine (ε324 =19800M^-1 cm^-1). Peptide 4-nitroanilide hydrolysis was measured at 410 nm (ε410 =8800 M ^-1 cm^-1). First order inactivation rate constants (kobs) were obtained from plots of ln vt /vo vs time, and the correlation coefficients were greater then 0.98.
Enzyme Irreversible Inactivation--Incubation Method. An aliquot of inhibitor (25 or 50 μL) in Me2 SO was added to 0.28-0.55 mL of a buffered enzyme solution (0.83 munits for DPP-IV; 2.1 units for acetylcholinesterase; 0.07-4.5 μM for other enzymes) to initiate the inactivation reaction. Aliquots (20-250 μL) were withdrawn at various intervals and the residual enzymatic activity was measured at 23° C. as described below. The buffers were: 0.05M Tris, pH 7.8 for DPP-IV; 0.1M Hepes, 0.01M CaCl2, pH 7.5 for bovine trypsin; 0.1M Hepes, 0.5M NaCl, pH 7.5 for bovine chymotrypsin, PPE, and HLE; 0.1M phosphate, pH 7.5 for acetylcholinesterase; 50 mM Tris-HCl, 2 mM EDTA, 5 mM cysteine, (freshly prepared) pH 7.5 buffer for papain and 100 mM KH2 PO4, 1.33 mM EDTA, 2.7 mM cysteine (freshly prepared), pH 6.0 buffer for cathepsin B. The Me2 SO concentration in the reaction mixtures was 8-9% (v/v). The inhibitor concentrations are shown in the appropriate table. Stock solutions of substrates were prepared in Me2 SO and stored at -20° C. DPP-IV was assayed with TFA.Ala-Pro-AFC. Papain and cathepsin B were assayed with Bz-Arg-AMC and Z-Arg-Arg-AMC, respectively. The release of AMC were followed fluorometrically (excitation at 380 nm and emmision at 460 nm for AMC). Acetylcholinesterase was assayed with acetylthiocholine iodide in the presence of DTNB at 412 nm. Trypsin was assayed with Z-Phe-Gly-Arg-.rho.NA.HCl (0.09 mM), chymotrypsin was assayed with Suc-Phe-Thr-Phe-.rho.NA (0.48 mM), PPE and HLE were assayed with Suc-Ala-Ala-Ala-.rho.NA (0.44 mM) and MeO-Suc-Ala-Ala-Pro-Val-.rho.NA (0.24 mM), respectively. Peptide .rho.-nitroanilide hydrolysis was measured at 410 nm (ε410 =8,800 M ^1 cm^-1). […]

T1 sequence (P27487 whole entry): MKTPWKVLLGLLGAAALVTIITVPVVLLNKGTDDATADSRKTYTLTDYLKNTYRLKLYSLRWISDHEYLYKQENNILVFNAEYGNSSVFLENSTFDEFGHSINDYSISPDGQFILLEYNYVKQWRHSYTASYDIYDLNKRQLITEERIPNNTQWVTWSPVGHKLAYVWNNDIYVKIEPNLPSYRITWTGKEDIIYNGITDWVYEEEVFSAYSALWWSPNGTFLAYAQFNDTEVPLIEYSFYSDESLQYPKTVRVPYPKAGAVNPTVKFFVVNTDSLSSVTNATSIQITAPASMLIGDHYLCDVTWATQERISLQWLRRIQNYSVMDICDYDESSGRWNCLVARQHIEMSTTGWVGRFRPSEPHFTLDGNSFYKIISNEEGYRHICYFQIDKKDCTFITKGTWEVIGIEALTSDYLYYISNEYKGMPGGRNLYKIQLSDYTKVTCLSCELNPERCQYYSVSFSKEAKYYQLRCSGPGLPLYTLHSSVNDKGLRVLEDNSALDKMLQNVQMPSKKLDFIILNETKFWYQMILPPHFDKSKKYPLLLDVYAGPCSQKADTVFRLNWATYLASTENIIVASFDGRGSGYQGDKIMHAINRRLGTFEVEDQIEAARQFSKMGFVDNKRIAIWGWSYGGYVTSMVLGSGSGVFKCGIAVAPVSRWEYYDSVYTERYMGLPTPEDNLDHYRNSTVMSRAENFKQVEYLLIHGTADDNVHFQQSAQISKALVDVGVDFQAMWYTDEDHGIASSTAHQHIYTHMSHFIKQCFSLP
Sequence of DPP-IV (P27487 whole entry): as above

| Structure (SMILES) | t1/2, half-life for hydrolysis [1] | recovery of enzyme activity of inhibited DPP-IV (DPP-IV) | DPP-IV enzyme activity found after incubation with inhibitor (DPP-IV) | % Inhibition 2 min (Human Placenta DPP-IV; 2 min incubation) | % Inhibition 30 min (Human Placenta DPP-IV; 30 min incubation) | kobs /[I] for DPP-IV (Human Placenta DPP-IV; [I] 0.42 mM) | inhibition of DPP-IV, in words (Human Placenta DPP-IV; 30 min incubation) | inhibition of chymotrypsin, in words (Chymotrypsin) | kobs /[I] Chymotrypsin (Chymotrypsin; [I] 0.42 mM, 0.1 M Hepes, 0.5 M NaCl, pH 7.5, 8-9% Me2SO, 23° C., Suc-Phe-Thr-Phe-pNA 0.48 mM) | kobs /[I] for DPP-IV (Human Placenta DPP-IV; [I] 0.042 mM) | inhibition of DPP-IV, in words (Human Placenta DPP-IV; 2 min incubation) |
| --- | --- | --- | --- | --- | --- | --- | --- | --- | --- | --- | --- |
| CC(=O)O.C[C@H](N)C(=O)N1CCCCC1P(=O)(Oc1ccccc1)Oc1ccccc1 (some centres unmarked) [Compound 7, Diphenyl Alanylpiperidine-2-phosphonate Acetate] | > 72 h | did not regain enzyme activity | no enzyme activity | 0% | 100% | 12.6 M⁻¹ s⁻¹ | showed some inhibitory potency |  |  |  |  |
| C[C@H](N)C(=O)N1CCCC1P(=O)(Oc1ccccc1)Oc1ccccc1.Cl (some centres unmarked) [Compound 6, Diphenyl Alanylpyrrolidine-2-phosphonate Hydrochloride] | 23.1 h | did not regain enzyme activity | 30% | 0% | 33% | 1.2 M⁻¹ s⁻¹ | showed some inhibitory potency |  |  |  |  |
| Br.N[C@@H](Cc1ccccc1)C(=O)N1CCCC1P(=O)(Oc1ccccc1)Oc1ccccc1 (some centres unmarked) [Compound 9, Diphenyl Phenylalanylpyrrolidine-2-phosphonate Hydrobromide] |  |  |  | 0% | 0% |  | did not show any inhibition |  |  |  |  |
| C[C@H](N)C(=O)N1CCCCC1P(=O)(Oc1ccc(F)cc1)Oc1ccc(F)cc1.Cl (some centres unmarked) [Compound 14, Di(4-fluorophenyl) Alanyl-piperidine-2-phosphonate Hydrochloride] | > 68 h |  | no enzyme activity |  |  | 12 M⁻¹ s⁻¹ |  |  |  |  |  |
| C[C@H](N)C(=O)N1CCCCC1P(=O)(Oc1ccc(Cl)cc1)Oc1ccc(Cl)cc1.Cl (some centres unmarked) [Compound 13, Di(4-chlorophenyl) Alanylpiperidine-2-phosphonate Hydrochloride] | 67 h | did not regain enzyme activity | no enzyme activity | 88% | 100% |  | showed some inhibitory potency | very slowly | 18 M⁻¹ s⁻¹ | 156 M⁻¹ s⁻¹ | effectively inhibited |
| Cl.Cl.NCCCC[C@H](N)C(=O)N1CCCCC1P(=O)(Oc1ccccc1)Oc1ccccc1 (some centres unmarked) [Compound 11, Diphenyl Lysylpiperidine-2-phosphonate Dihydrochloride] | > 48 h |  |  | 35% | 88% | 4.2 M⁻¹ s⁻¹ | showed some inhibitory potency |  |  |  | effectively inhibited |
| CC(=O)O.C[C@H](N)C(=O)N1CCCCC1P(=O)(O)Oc1ccccc1 (some centres unmarked) [Compound 8, Monophenyl Alanylpiperidine-2-phosphonate Acetate] |  |  |  | 0% | 0% |  | did not show any inhibition |  |  |  |  |
| Br.Br.NCCCC[C@H](N)C(=O)N1CCCC1P(=O)(Oc1ccccc1)Oc1ccccc1 (some centres unmarked) [Compound 10, Diphenyl Lysylpyrrolidine-2-phosphonate Dihydrobromide] | 52 h |  |  | 0% | 0% | 1.7 M⁻¹ s⁻¹ | did not show any inhibition |  |  |  |  |
